Data: PubChem BioAssay (NCI)
Several values for one entry are separate records, joined by “and”; a condition that tells them apart may be missing. Equal entries are not always repeated.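 In this assay, cells in 96-well plates receive the compound at five concentrations for 48 hours. Endpoints are linearly interpolated between the surrounding concentrations. Abbreviation: GI50, concentration required for 50% inhibition of growth. TGI: concentration producing complete growth inhibition.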

Experiments:
Test in all cases: inhibition of tumour cell growth, NCI panel, 48 h
NCI-H522 lung = system: NCI-H522 lung
IGROV1 ovarian = system: IGROV1 ovarian
CAKI-1 renal = system: CAKI-1 renal
PC-3 prostate = system: PC-3 prostate
SNB-75 CNS = system: SNB-75 CNS
M14 melanoma = system: M14 melanoma
COLO 205 colon = system: COLO 205 colon
NCI-H226 lung = system: NCI-H226 lung
KM12 colon = system: KM12 colon
U251 CNS = system: U251 CNS

SMILES	GI50 (NCI-H522 lung)	TGI (NCI-H522 lung)	GI50 (IGROV1 ovarian)	TGI (IGROV1 ovarian)	GI50 (CAKI-1 renal)	TGI (CAKI-1 renal)	GI50 (PC-3 prostate)	TGI (PC-3 prostate)	GI50 (SNB-75 CNS)	TGI (SNB-75 CNS)	GI50 (M14 melanoma)	TGI (M14 melanoma)	GI50 (COLO 205 colon)	TGI (COLO 205 colon)	GI50 (NCI-H226 lung)	TGI (NCI-H226 lung)	GI50 (KM12 colon)	TGI (KM12 colon)	GI50 (U251 CNS)	TGI (U251 CNS)
COC(=O)CNc1nc(N(C)O)nc(N(C)O)n1	3.73 µM	> 100 µM	7.38 µM	39.4 µM	13.1 µM	> 100 µM	> 100 µM	> 100 µM	4.2 µM	> 100 µM	3.38 µM	32.6 µM	3.99 µM	> 100 µM	8.31 µM	> 100 µM	5.65 µM	> 100 µM	2.26 µM	> 100 µM
CC(=O)OCC1OC(n2ncc(=O)[nH]c2=O)C(OC(C)=O)C1OC(C)=O (configuration not stated)		> 100 µM		> 100 µM		> 100 µM		> 100 µM		> 100 µM		> 100 µM		> 100 µM		> 100 µM		> 100 µM		> 100 µM
COc1ccc(NC(=O)c2ccc(NC3=C(Cl)C(=O)N(Cc4ccccc4)C3=O)cc2)c(OC)c1	19 µM	68.9 µM	10.8 µM	73.8 µM	0.637 µM	1.96 µM	25.7 µM	> 100 µM	47.1 µM	> 100 µM	18.5 µM	48 µM	44.4 µM	> 100 µM	43.9 µM	> 100 µM	27.7 µM	92.8 µM	27.2 µM	86.3 µM
Cc1ccsc1-c1ccc2c(c1)COC2(CCCN(C)C)c1ccc(F)cc1 (configuration not stated)	3.02 µM	12.4 µM	1.87 µM	5.86 µM	2.19 µM	6.05 µM	3.28 µM	13.2 µM	1.72 µM	6.82 µM	1.73 µM	3.46 µM	1.92 µM	4.19 µM	8.59 µM	25.3 µM	3.13 µM	10.9 µM	1.95 µM	4.24 µM
O=C1NC(=NCCc2ccccn2)S/C1=C\c1ccc2ncccc2c1	9.02 µM	> 22.6 µM	9.29 µM	> 25 µM	6.94 µM	> 21.7 µM	15.1 µM	> 25 µM	1.69 µM	> 20.7 µM	12.7 µM	> 25 µM	9.05 µM	> 25 µM	11 µM	> 25 µM	18.2 µM	> 25 µM	9.23 µM	> 25 µM
COc1ccc2nc3cccc([N+](=O)[O-])c3c(NC(C)CN(C)C)c2c1 (configuration not stated)	0.69 µM	2.18 µM	1.67 µM	5.54 µM	2.52 µM	7.19 µM		6.85 µM	2.25 µM	5.55 µM	1.41 µM	2.8 µM	1.84 µM	6.89 µM	1.75 µM	4.1 µM	2.18 µM	6.65 µM	0.371 µM	2.17 µM
N#CC1=C(N)Oc2c(sc3c(Br)cccc23)C1c1ccc(Cl)cc1 (configuration not stated)	0.367 µM	2.43 µM	0.787 µM	4.35 µM	0.477 µM	16.3 µM	0.56 µM	5.55 µM	0.478 µM	9.41 µM	0.45 µM	2.65 µM	0.774 µM	2.72 µM	1.49 µM	10.4 µM	0.389 µM	6.2 µM	0.563 µM	2.36 µM
Cc1ccccc1C(C(=O)NC1CCCCC1)N(C(=O)CNc1ccc(C#N)cc1)c1cccc(F)c1 (configuration not stated)	14.3 µM	> 100 µM	25 µM	> 100 µM	14.7 µM	> 62.6 µM	20.3 µM	> 100 µM	1.38 µM	8.97 µM	80.9 µM	> 100 µM	> 83.2 µM	> 100 µM	14.1 µM	> 94.5 µM	> 100 µM	> 100 µM	5.28 µM	> 100 µM
C=C1C(=O)C2=CC1CCC(=O)C1(C)CCC(OC(C)=O)C(C)(C)C1CC2O (configuration not stated)		2.19 µM		14.1 µM		6.2 µM		28.8 µM		24.8 µM		10.4 µM		2.47 µM		31.9 µM		15.9 µM		> 47.1 µM
C/C=C(\C)C(=O)O[C@H]1C=CC(=O)O[C@H]1COC(=O)[C@H](C)O	7.1 µM	23.7 µM	10.2 µM	33.7 µM	5.46 µM	14.9 µM	11 µM	28.9 µM	6.95 µM	20.9 µM	7.51 µM	23.1 µM	3.07 µM	15.5 µM	12.4 µM	31.5 µM	8.81 µM	27 µM	7.35 µM	21 µM
Cc1sc2c(c1C)C(c1ccc(Cl)cc1)=N[C@@H](CC(=O)NCCCN1CCN(C)CC1)c1nnc(C)n1-2	0.0746 µM	> 100 µM	0.618 µM	> 100 µM	0.684 µM	> 100 µM	1.05 µM	> 100 µM	< 0.0106 µM	0.16 µM	1.24 µM	> 100 µM	0.0995 µM	> 100 µM		> 100 µM	19.6 µM	> 100 µM	8.88 µM	> 100 µM
O=[N+]([O-])c1ccc2c(c1)C(c1ccccc1Cl)=Nc1c(n[nH]c1-c1cccnc1)N2	> 25 µM	> 25 µM	> 25 µM	> 25 µM	> 25 µM	> 25 µM	> 25 µM	> 25 µM	> 10.1 µM	> 25 µM	> 25 µM	> 25 µM	> 25 µM	> 25 µM	> 25 µM	> 25 µM	9.41 µM	> 25 µM	> 25 µM	> 25 µM
CN(C)Cc1c(C(=O)NCCOc2ccc(C(=O)NO)cc2)oc2ccccc12	0.0819 µM	0.574 µM	0.438 µM	3.6 µM	0.311 µM	1.57 µM	0.214 µM	5.06 µM	0.153 µM	> 40.7 µM	0.223 µM	1.68 µM	0.133 µM	0.282 µM	0.626 µM	7.6 µM	0.312 µM	2.34 µM	0.229 µM	0.976 µM
Cn1c(=O)c(Oc2ccc(F)cc2F)cc2cnc(NC3CCOCC3)nc21	> 25 µM	> 25 µM	> 25 µM	> 25 µM	> 25 µM	> 25 µM	> 25 µM	> 25 µM	> 15.5 µM	> 25 µM	> 25 µM	> 25 µM	> 25 µM	> 25 µM	> 25 µM	> 25 µM	> 25 µM	> 25 µM	> 25 µM	> 25 µM
C=C1C(=O)O[C@H]2[C@H]1CC/C(CNC(=O)/C=C/c1ccccc1F)=C\CC[C@@]1(C)O[C@@H]21	0.399 µM	1.64 µM	1.69 µM	4.65 µM	1.3 µM	2.67 µM	2 µM	4.29 µM	2.18 µM	8.29 µM	1.34 µM	3.05 µM	1.4 µM	2.96 µM	2.42 µM	6.94 µM	4.4 µM	17.3 µM	1.86 µM	3.75 µM
Cc1c2c(nn1-c1ccc(S(=O)(=O)NC(=S)NC(=O)c3ccccc3)cc1)-c1ccccc1CC2	50.4 µM	> 100 µM	> 100 µM	> 100 µM	16.1 µM	51.9 µM	42 µM	> 100 µM	59.5 µM	> 100 µM	> 100 µM	> 100 µM	44.9 µM	> 100 µM	60.2 µM	> 100 µM	34.5 µM	> 100 µM	43.3 µM	> 100 µM
CC(C)C(=O)c1c(C(F)(F)F)n([O-])c2ccccc2[n+]1=O	1.76 µM	15.1 µM	1.11 µM		0.689 µM	2.1 µM	0.688 µM	3.03 µM	15.2 µM	> 42.7 µM	1.74 µM	3.76 µM	1.31 µM	2.97 µM	1.86 µM	5.27 µM	0.563 µM	1.65 µM	2.84 µM	> 33.2 µM
CC1Cc2ccccc2N1C(=O)Cc1nc(N2CCOCC2)cc(=O)[nH]1 (configuration not stated)	25.6 µM and 39.7 µM	> 100 µM	3.09 µM and 9.02 µM	22.8 µM and 52.6 µM	10.5 µM and 28 µM	> 100 µM	2.47 µM and 5.2 µM	> 100 µM	0.188 µM and 1.16 µM	> 100 µM and 23.3 µM	13.8 µM and 27 µM	> 100 µM	17.4 µM and 53.8 µM	46.2 µM and > 100 µM	36.4 µM and 32.5 µM	> 100 µM	20.2 µM and 47.6 µM	55.1 µM and > 100 µM	21.8 µM and 45.9 µM	> 100 µM
N#Cc1c(N/N=C\c2ccc(Cl)cc2)nc(N)nc1N1CCOCC1	32.5 µM	> 100 µM	26 µM	97.4 µM	43.3 µM	> 100 µM	24.6 µM	> 100 µM	57.3 µM	> 100 µM	67.4 µM	> 100 µM	66.2 µM	> 100 µM	53.6 µM	> 100 µM	36.1 µM	> 100 µM	40.4 µM	> 100 µM
O=[N+]([O-])c1oc2ccc3ccccc3c2c1CCO		3.77 µM		3.56 µM		8.58 µM		87.7 µM		16.7 µM		5.24 µM		1.46 µM		30.1 µM		31.5 µM		56.9 µM
CC(=O)OCCCC#CC#Cc1cccc(=O)o1	32.1 µM	> 100 µM	18.7 µM	> 100 µM	13.6 µM	28.3 µM	18.4 µM	44.4 µM	29.1 µM	67.2 µM	17.8 µM	36.5 µM	19.4 µM	41.8 µM	20.8 µM	52.8 µM	16 µM	30.9 µM	23.9 µM	54.3 µM
COc1ccc(OC)c(/C=C/c2ccnc3ccccc23)c1		1.79 µM		17.4 µM		18.1 µM		6.76 µM		0.977 µM		17.8 µM		0.863 µM		4.74 µM		11.5 µM		5.66 µM
NC(N)=Nc1ccc(/C=C2\C=Cc3ccccc32)cc1	2.39 µM	5.79 µM	2.02 µM	5.12 µM	2.49 µM	8.67 µM	3.31 µM	14.8 µM	2.22 µM	8.99 µM	2.05 µM	5.44 µM	1.99 µM	3.7 µM	5.73 µM	31.1 µM	1.85 µM	3.51 µM	1.72 µM	3.31 µM
CCOC(=O)c1cc(NS(=O)(=O)c2ccc(C)cc2)cc(C(=O)OCC)c1	34.5 µM	> 100 µM	51.7 µM	> 100 µM	43.5 µM	> 100 µM	47.7 µM	> 100 µM	23.1 µM	68.9 µM	52.5 µM	> 100 µM	36.1 µM	> 100 µM	54 µM	> 100 µM	55.9 µM	> 100 µM	51.3 µM	> 100 µM
COc1ccc(Cn2cc3c(c2-c2cc(OC)c(OC)c(OC)c2)CCc2c(CO)noc2-3)cc1	0.206 µM	12.2 µM	0.596 µM	32.1 µM	0.342 µM	20.1 µM	0.309 µM	41.9 µM	0.177 µM	24.4 µM	0.215 µM	2.88 µM	0.339 µM	4.28 µM	2.94 µM	38.2 µM	0.341 µM	17.9 µM	0.349 µM	15.5 µM
O=S(=O)(NCCCNc1cc(-c2cn(-c3ccccc3)nc2-c2cccc(O)c2)ccn1)c1ccc(Br)cc1	2.11 µM	4.85 µM	3.58 µM	29 µM	2.25 µM	12.6 µM	2.11 µM	7.83 µM	1.22 µM	7.81 µM	1.78 µM	3.78 µM	1.65 µM	3.4 µM	2.32 µM	8.66 µM	1.65 µM	3.94 µM	1.21 µM	4.44 µM
